Structures can show the parent of a compound that is named as a salt. Where two headings read alike, the source gives them in different places.
How the values were obtained:
Format in all cases: physicochemical
[1] = Dynamic vapor sorption (DVS) analysis
From the text: In view of the DVS analysis, compound I HCl Form I may be characterized as a monohydrate.

[2] = Kinetic solubility in SGF; settings: listed as HC1 salt Form I
[3] = Overall solid form comparison (summary statements)
From the text: The hydration behavior of Compound I HCl Form I is reversible, such that rehydration of Compound I HCl Form I returns the single, crystalline form, allowing Compound I HCl Form I be stored at ambient conditions without desiccant.

[4] = Polymorphic stability at elevated temperatures
[5] = Further solubility testing of Compound I HCl Form I in solvents
[6] = Approximate kinetic solubility in organic solvents; settings: kinetic from dmso stock
From the text: (§1) A summary of the approximate kinetic solubility of Compound I HCl Form I in organic solvents, simulated biological fluids, and common pharmaceutical co-solvents is provided in Tables 8-10, respectively.

[7] = Approximate kinetic solubility in simulated biological fluids; settings: about 37° C.; for solubility kinetic at 2 h: equilibrated for 2 hrs; for solubility kinetic at 1 day: equilibrated for 1 day
From the text: as §1

[8] = Kinetic solubility in water; settings: 37° C., listed as HC1 salt Form I; for pH of supernatant: water (native pH 7.6); for Kinetic solubility: water
[9] = Thermodynamic aqueous solubility by HPLC; settings: HPLC grade water, 25° C., 24 hours; second scale up material; listed as Comp. I HCl (formed using aqueous HCl) Form I
Procedure: The suspension was equilibrated at 25° C. for 24 hours. The suspension was then passed through a filter into an HPLC vial. The filtrate was then diluted by an appropriate factor. Quantification was executed by HPLC with reference to a standard solution of approximately 1 mg·mL^−1 in acetonitrile:water (1:1). Different volumes of the standard, diluted and undiluted sample solutions were injected. […] HPLC method parameters are described in Table 1 and Table 2.
Analysis was performed on an Agilent 1100 series liquid chromatography, equipped with a UV detector (DAD or VWD) @ 254 nm and using Chemstation Rev.B.01.03 software for data processing.
The solubility of the salts/co-crystals of Compound I prepared from the second scale up process was analyzed. The materials recovered after the solubility analysis were evaluated by XRPD to observe any form changes.

[10] = Solid-state storage stability at controlled temperature/RH; settings: for Form change / HPLC purity on storage: 2 weeks, initial HPLC purity 99.3%
Procedure: Storage at 25° C./60% RH and at 40° C./75% RH: Compound I HCl Form I was stored at 25° C./60% RH and at 40° C./75% RH. Initial HPLC purity was 99.3%.

[11] = Kinetic solubility in FeSSIF
[12] = Kinetic solubility in FaSSIF; settings: listed as HC1 salt Form I
[13] = DMSO, organic solvent or mixture
[14] = simulated gastric fluid, SGF (pH 1.2)

## CCS(=O)(=O)N1CCN(c2ccc(Nc3ncc(C(N)=O)c(NC4CC4)n3)cc2)CC1 [Compound I HCl Form I, 4-(cyclopropylamino)-2-(4-(4-(ethylsulfonyl)piperazin-1-yl)phenylamino)pyrimidine-5-carboxamide]
[1]
  De-hydration and re-hydration behaviour (DVS): reversible
  RH at which complete moisture re-uptake is observed (DVS): about 20 % RH
[1]; below about 10% RH
  DVS weight: up to 3.5%
[1]; between about 40% and about 90% RH
  DVS moisture uptake: minimal moisture uptake with no hysteresis
[2]; SGF, 37° C., 1 h, drug loading ~10 mg/mL as freebase
  Solubility (mg/mL) 1 h: 0.041 mg/mL
[2]; SGF, 37° C., 2 h
  Solubility (mg/mL) 2 h: 0.039 mg/mL
[2]; SGF, 37° C., 4 h
  Solubility (mg/mL) 4 h: 0.036 mg/mL
[2]; SGF, 37° C., 24 h
  Solubility (mg/mL) 24 h: 0.035 mg/mL
[2]; XRPD of residual solids, SGF, 1 h, 2 h, 4 h, 24 h
  Final Form: HC1 salt Form I
[2]; supernatant, SGF (native pH 1.8), 1 h
  pH 1 h: 1.9
[2]; supernatant, SGF (native pH 1.8), 2 h
  pH 2 h: 1.9
[2]; supernatant, SGF (native pH 1.8), 4 h
  pH 4 h: 2.0
[2]; supernatant, SGF (native pH 1.8), 24 h
  pH 24 h: 2.0
[3]
  Stability relative to the other solid forms / salts of Compound I: most physico-chemically stable solid form
[3]; listed as Compound I mono-HCl Form I
  Stability relative to the other solid forms / salts of Compound I: superior thermodynamically stability
[3]; room temperature, ambient conditions
  Stability of the solid form: stable
[4]; 3 days at about 60% RH
  Polymorphism after re-hydrating post-TGA material (DSC): no gross effect upon the polymorphism, but amorphous content did appear
[4]; about 50° C., about 72 hours
  Crystalline form after dry-heating (XRPD, DSC, proton NMR): did not change the crystalline form
[4]; up to about 120° C. until approximately 3% weight loss
  Crystalline form after heating inside TGA: slight loss of crystallinity, but without a new form appearing
[5]; 1,4-dioxane, organic solvent or mixture
  solubility: < 2100 µg/mL
[5]; 2-MeTHF, organic solvent or mixture
  solubility: < 2100 µg/mL
[5]; ACN, organic solvent or mixture
  solubility: < 2200 µg/mL
[5]; ACN/H2O, 4:1 (v/v), organic solvent or mixture
  solubility: 2900 to 3800 µg/mL
[5]; Acetone/H2O, 4:1 (v/v), organic solvent or mixture
  solubility: < 1900 µg/mL
[5]; CHCl3, organic solvent or mixture
  solubility: < 2300 µg/mL
[5]; CPME, organic solvent or mixture
  solubility: < 2000 µg/mL
[5]; DCM, organic solvent or mixture
  solubility: < 2100 µg/mL
[5]; [13]
  solubility: > 36000 µg/mL
[5]; EtOAc, organic solvent or mixture
  solubility: < 2000 µg/mL
[5]; EtOH, organic solvent or mixture
  solubility: < 2200 µg/mL
[5]; EtOH/H2O, 4:1 (v/v), organic solvent or mixture
  solubility: < 2000 µg/mL
[5]; IPA, organic solvent or mixture
  solubility: < 1900 µg/mL
[5]; IPAc, organic solvent or mixture
  solubility: < 2300 µg/mL
[5]; MIBK, organic solvent or mixture
  solubility: < 2300 µg/mL
[5]; MTBE, organic solvent or mixture
  solubility: < 2000 µg/mL
[5]; MeOH, organic solvent or mixture
  solubility: 1900 to 6300 µg/mL
[5]; MeOH/DCM, 1:1 (v/v), organic solvent or mixture
  solubility: 6800 to 12500 µg/mL
[5]; MeOH/H2O, 4:1 (v/v), organic solvent or mixture
  solubility: < 2000 µg/mL
[5]; NMP, organic solvent or mixture
  solubility: 4000 to 6700 µg/mL
[5]; THF, organic solvent or mixture
  solubility: < 1900 µg/mL
[5]; THF/H2O, 4:1 (v/v), organic solvent or mixture
  solubility: 2000 to 2500 µg/mL
[5]; acetone, organic solvent or mixture
  solubility: < 2200 µg/mL
[5]; anisole, organic solvent or mixture
  solubility: < 2300 µg/mL
[5]; n-heptane, organic solvent or mixture
  solubility: < 1900 µg/mL
[5]; toluene, organic solvent or mixture
  solubility: < 2100 µg/mL
[6]; Acetone, MeCN, IPA, EtOAc, THF, Dioxane, DCM, organic solvent or mixture
  solubility kinetic: < 100 µg/mL
[6]; DMF, PEG300, organic solvent or mixture
  solubility kinetic: 1000 to 10000 µg/mL
[6]; [13]
  solubility kinetic: 10000 to 33300 µg/mL
[6]; Methanol, Ethanol, PG, Safflower Seed Oil, Tween 80, organic solvent or mixture
  solubility kinetic: 100 to 1000 µg/mL
[7]; FaSSIF (pH 6.1)
  solubility kinetic at 2 h: 3 µg/mL
  solubility kinetic at 1 day: 3 µg/mL
[7]; FeSSIF (pH 5.0)
  solubility kinetic at 2 h: 35 µg/mL
  solubility kinetic at 1 day: 39 µg/mL
[7]; [14]
  solubility kinetic at 2 h: 67 µg/mL
  solubility kinetic at 1 day: 78 µg/mL
[8]; 1 h
  pH of supernatant: 3.1
  Kinetic solubility: 220 µg/mL
[8]; 2 h
  pH of supernatant: 2.9
  Kinetic solubility: 250 µg/mL
[8]; 4 h
  pH of supernatant: 3.0
  Kinetic solubility: 180 µg/mL
[8]; 24 h
  pH of supernatant: 2.9
  Kinetic solubility: 180 µg/mL
[9]
  solubility: 350 µg/mL
[10]; 25° C./60% RH
  Form change / HPLC purity on storage: No form change or decrease in purity by HPLC
[10]; 40° C./75% RH
  Form change / HPLC purity on storage: No form change or decrease in purity by HPLC
[10]; powder, about 6 months, about 40° C./75% RH, open dish
  Form change on storage (XRPD, TGA and DSC): did not exhibit any form change
[11]; 37° C.
  Kinetic solubility in FeSSIF (qualitative): favorable kinetic solubility
[11]; 37° C., 1 h, drug loading ~10 mg/mL as freebase, listed as HC1 salt Form I
  Solubility (mg/mL) 1 h: 0.049 mg/mL
[11]; 37° C., 2 h, listed as HC1 salt Form I
  Solubility (mg/mL) 2 h: 0.031 mg/mL
[11]; 37° C., 4 h, listed as HC1 salt Form I
  Solubility (mg/mL) 4 h: 0.010 mg/mL
[11]; 37° C., 24 h, listed as HC1 salt Form I
  Solubility (mg/mL) 24 h: 0.0072 mg/mL
[11]; XRPD of residual solids, 2 h, 4 h, 24 h
  Final Form 2 h, 4 h, 24 h: Freebase Form II
[11]; supernatant, 1 h, listed as HC1 salt Form I
  pH 1 h: 4.9
[11]; supernatant, 2 h, listed as HC1 salt Form I
  pH 2 h: 4.7
[11]; supernatant, 4 h, listed as HC1 salt Form I
  pH 4 h: 4.7
[11]; supernatant, 24 h, listed as HC1 salt Form I
  pH 24 h: 4.5
[12]; FaSSIF, 37° C., 1 h, drug loading ~10 mg/mL as freebase
  Solubility (mg/mL) 1 h: 0.012 mg/mL
[12]; FaSSIF, 37° C., 2 h
  Solubility (mg/mL) 2 h: 0.013 mg/mL
[12]; FaSSIF, 37° C., 4 h
  Solubility (mg/mL) 4 h: 0.013 mg/mL
[12]; FaSSIF, 37° C., 24 h
  Solubility (mg/mL) 24 h: 0.011 mg/mL
[12]; supernatant, FaSSIF (native pH 6.5), 1 h
  pH 1 h: 5.4
[12]; supernatant, FaSSIF (native pH 6.5), 2 h
  pH 2 h: 5.1
[12]; supernatant, FaSSIF (native pH 6.5), 4 h
  pH 4 h: 5.2
[12]; supernatant, FaSSIF (native pH 6.5), 24 h
  pH 24 h: 4.6

Reference: patent publication US11713309B2, “Solid forms of Cerdulatinib” (Alexion Pharmaceuticals, Inc., priority 2018, dated 2023)
